# From US11724992B2 (Novartis AG, priority 2017, dated 2023)
# Test system: IL-1β production in PMA-differentiated THP-1 cells
# Assay: IL-1β production in PMA-differentiated THP-1 cells stimulated with gramicidin (hTHP-1 assay, 2% fetal bovine serum; Procedures 1-3)
# Format: cell-based, human
# Conditions: Homo sapiens, THP-1, hTHP-1 assay containing 2% fetal bovine serum; class symbols; read-out: hTHP-1 IC50 (Average IC50 of compounds in hTHP-1 assay)
# Summary of the method: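 Readout is HTRF of IL-1β in cell-free supernatant after 2 h gramicidin (5 μM) challenge. Cells: THP-1 differentiated with PMA 20 ng/ml for 16-18 h, plated 50,000/well in 2% FBS RPMI, exposed to compound 1 h beforehand at final 100–0.0017 μM, DMSO 0.37%.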
row,IC50 [nM],SMILES
1,40 to 200,"CC(C)(O)c1ncc(S(N)(=O)=NC(=O)Nc2cc3c(c4c2CCC4)CCC3)s1 (stereo not shown) [Example 285, N′-((1,2,3,6,7,8-hexahydro-as-indacen-4-yl)carbamoyl)-2-(2-hydroxypropan-2-yl)thiazole-5-sulfonimidamide]"
2,40 to 200,"CC(C)(O)c1ncc(S(N)(=O)=NC(=O)Nc2c3c(cc4c2OCC4)CCC3)s1 (stereo not shown) [Example 289, 2-(2-Hydroxypropan-2-yl)-N′-((3,5,6,7-tetrahydro-2H-indeno[5,6-b]furan-8-yl)carbamoyl)thiazole-5-sulfonimidamide]"
3,40 to 200,"COC(C)(C)c1ncc(S(N)(=O)=NC(=O)Nc2c3c(cc4c2CCC4)CCC3)s1 (stereo not shown) [Example 295, N′-((1,2,3,5,6,7-hexahydro-s-indacen-4-yl)carbamoyl)-2-(2-methoxypropan-2-yl)thiazole-5-sulfonimidamide]"

# The next lines start with the compound.
row,SMILES,IC50 [nM]
1,"CN(C)C(C)(C)c1ccc(S(N)(=O)=NC(=O)Nc2c3c(cc4c2CCC4)CCC3)cc1 (stereo not shown) [Example 267, 4-(2-(Dimethylamino)propan-2-yl)-N′-(1,2,3,5,6,7-hexahydro-s-indacen-4-ylcarbamoyl)benzenesulfonimidamide]",40 to 200
2,"CC(C)(O)c1cc(F)c(S(N)(=O)=NC(=O)Nc2c3c(cc4c2CCC4)CCC3)s1 (stereo not shown) [Example 269, 3-Fluoro-N′-(1,2,3,5,6,7-hexahydro-s-indacen-4-ylcarbamoyl)-5-(2-hydroxypropan-2-yl)thiophene-2-sulfonimidamide]",8 to 40
3,"COC(C)(C)c1ccc(S(N)(=O)=NC(=O)Nc2c3c(cc4c2CCC4)CCC3)cc1 (stereo not shown) [Example 274, N′-(1,2,3,5,6,7-hexahydro-s-indacen-4-ylcarbamoyl)-4-(2-methoxypropan-2-yl)benzenesulfonimidamide]",200 to 1000
4,"CN(C)Cc1ccc(S(N)(=O)=NC(=O)Nc2c3c(cc4c2CCC4)CCC3)nc1 (stereo not shown) [Example 278, 5-((Dimethylamino)methyl)-N′-(1,2,3,5,6,7-hexahydro-s-indacen-4-ylcarbamoyl)pyridine-2-sulfonimidamide]",200 to 1000
5,"CN(C)Cc1cc(F)c(S(N)(=O)=NC(=O)Nc2c3c(cc4c2CCC4)CCC3)s1 (stereo not shown) [Example 279, 5-((Dimethylamino)methyl)-3-fluoro-N′-(1,2,3,5,6,7-hexahydro-s-indacen-4-ylcarbamoyl)thiophene-2-sulfonimidamide]",8 to 40

# Same assay, conditions: hTHP-1 assay containing 2% fetal bovine serum; class symbols; read-out: hTHP-1 IC50 (Average IC50 of compounds in hTHP-1 assay)
row,IC50 [nM],SMILES
1,200 to 1000,"CN1CCCC1c1ccc(S(=N)(=O)NC(=O)Nc2c3c(cc4c2CCC4)CCC3)cc1 (stereo not shown) [Example 283, N-((1,2,3,5,6,7-hexahydro-s-indacen-4-yl)carbamoyl)-4-(1-methylpyrrolidin-2-yl)benzenesulfonimidamide]"
2,40 to 200,"CC1CCc2c1cc1c(c2NC(=O)N=S(N)(=O)c2cnc(C(C)(C)O)s2)CCC1 (stereo not shown) [Example 291, 2-(2-Hydroxypropan-2-yl)-N′-((1-methyl-1,2,3,5,6,7-hexahydro-s-indacen-4-yl)carbamoyl)thiazole-5-sulfonimidamide]"
3,40 to 200,"CC1CCc2cc3c(c(NC(=O)N=S(N)(=O)c4cnc(C(C)(C)O)s4)c21)CCC3 (stereo not shown) [Example 292, 2-(2-Hydroxypropan-2-yl)-N′-((3-methyl-1,2,3,5,6,7-hexahydro-s-indacen-4-yl)carbamoyl)thiazole-5-sulfonimidamide]"
4,8 to 40,"[2H]C([2H])([2H])C(O)(c1ncc([S@](N)(=O)=NC(=O)Nc2c3c(cc4c2CCC4)CCC3)s1)C([2H])([2H])[2H] [Example 393, (R)-N′-((1,2,3,5,6,7-hexahydro-s-indacen-4-yl)carbamoyl)-2-(2-hydroxypropan-2-yl-1,1,1,3,3,3-d6)thiazole-5-sulfonimidamide]"
5,200 to 1000,"[2H]C([2H])([2H])C(O)(c1ncc([S@@](N)(=O)=NC(=O)Nc2c3c(cc4c2CCC4)CCC3)s1)C([2H])([2H])[2H] [Example 394, (S)-N′-((1,2,3,5,6,7-hexahydro-s-indacen-4-yl)carbamoyl)-2-(2-hydroxypropan-2-yl-1,1,1,3,3,3-d6)thiazole-5-sulfonimidamide]"
